Experimental data reported in patent publication EP1366743A1, “Use of a derivative of 7-oxydated DHEA for treating dry skin” (L'OREAL, priority 2002, dated 2003).

Tested on: sébocytes humains immortalisés en culture, issus de la lignée SZ95
Experiment: Lipogenesis: total lipids produced by cultured immortalised human sebocytes (Nile Red fluorescence)
Type: cell-based
Details: for activation at 10 µM / activation at 1 µM: 48 h, total lipids, variation versus control, 2 days of treatment, confluent SZ95 sebocytes; for activation at 10 µM: 10^-5 M in 0,1% DMSO, read-out: % de variation à 10^-5 M; for activation at 1 µM: 10^-6 M in 0,1% DMSO, read-out: % de variation à 10^-6 M
Text: La 7α-OH DHEA et la 3-O-acétyl 7-benzoyloxy DHEA ont été testées sur un modèle de sébocytes humains immortalisés en culture, issus de la lignée SZ95 décrite dans Zouboulis, C.C., Seltmann, H., Neitzel, H. & Orfanos, C.E., Establishment and Characterization of an Immortalized Human Sebaceous Gland Cell Line, J. Invest. Dermatol., 113, 1011-1020 (1999).
Le test a consisté à mesurer la quantité de lipides produite par les sébocytes de la lignée (à confluence), en présence ou non d'agents actifs dilués dans le DMSO à 10^-5 M et 10^-6 M, de telle sorte que la quantité finale de DMSO dans le milieu de culture soit de 0,1%. Après 2 jours de traitement, les cellules adhérentes sont traitées par du Rouge de Nile (1µg/ml). Le contenu en lipides est ensuite quantifié par mesure de la fluorescence du colorant (deux couples d'excitation/émission : 485-540nm pour les lipides neutres et 540-620 nm pour les lipides non neutres). Les résultats sont donnés pour les lipides totaux (combinaison des deux mesures).
L'expérience est réalisée en sixplicate (produits dosés) ou dodeplicate (témoin) en plaque de 96 puits.
Le Tableau ci-dessous rassemble les résultats obtenus, en pourcentage de variation par rapport au témoin, ainsi que les coefficients p fournis par le test de Student et qui reflètent la significativité des mesures.

| Compound | activation at 10 µM | activation at 1 µM | lipogénèse (result in words, 10^-6 M) |
| --- | --- | --- | --- |
| CC(=O)O[C@H]1CC[C@@]2(C)C(=CC(OC(=O)c3ccccc3)[C@@H]3[C@@H]2CC[C@]2(C)C(=O)CC[C@@H]32)C1 (some centres unmarked) [3-O-acétyl 7-benzoyloxy DHEA] | 15% | 15% | efficace |
| C[C@]12CC[C@H](O)CC1=C[C@@H](O)[C@@H]1[C@@H]2CC[C@]2(C)C(=O)CC[C@@H]12 [7α-OH DHEA] | 15% | 6% |  |
